Results on 41 compounds are retold here after ChEMBL document CHEMBL4483862, “Open-source discovery of chemical leads for next-generation chemoprotective antimalarials” (2018).

The experiment relates to Plasmodium berghei. Nature of the experiment: Luciferase/luciferin-expressing antifolate-resistant parasites were used to infect a culture of HepG2 cells that were pre-incubated with compounds. Infected hepatocytes emit light due to the luciferase reaction. Assay results are presented as the percent inhibition of light emission compared to control. […]. The format is functional. To be noted: sporozoite; for IC90: read-out: LUCIFERASE INFECTION ASSAY - IC90.

Where [1] appears, read: read-out: LUCIFERASE INFECTION ASSAY - IC50.

As a reminder, the IC50 is the concentration needed to halve the response being measured. Usually IC90 stands for the concentration at which the effect reaches the 90% level.

In the case of `Cc1cc(C(=O)C[n+]2ccc(N(C)C)cc2)c(C)n1Cc1ccccc1`, the IC90 stood at 4.24 µM. Also, the IC50 (HEPG2TOX_HILL_SLOPE 1.63, HEPG2TOX_R_SQUARED 0.735, PBLUC_HILL_SLOPE 13.8, 4.61, PBLUC_R_SQUARED 0.572, 0.235, read-out: LUCIFERASE INFECTION ASSAY - IC50) came out at 3.09 µM.

As for `CCCn1c(NC(=O)c2ccccc2SCc2c(C)noc2C)nc2ccccc21`, the IC90 is 9.89 µM. Besides, under “FFLUC_HILL_SLOPE 30, FFLUC_R_SQUARED 0.401, HEPG2TOX_HILL_SLOPE 7.23, HEPG2TOX_R_SQUARED 0.341, PBLUC_HILL_SLOPE 15.1, PBLUC_R_SQUARED 0.618, read-out: LUCIFERASE INFECTION ASSAY - IC50”, the half-inhibitory concentration (IC50) turned out to be 8.55 µM.

As to `O=S(=O)(/C=C/c1ccccc1)N1CCSc2ccc(Cl)cc21`, the IC90 was 4.27 µM. For the same compound, the 50% inhibitory concentration (IC50) (HEPG2TOX_HILL_SLOPE 12.6, HEPG2TOX_R_SQUARED 0.499, PBLUC_HILL_SLOPE 12.6, PBLUC_R_SQUARED 0.783, read-out: LUCIFERASE INFECTION ASSAY - IC50) turned out to be 3.58 µM.

Consider `O=C(Cn1cc(C(=O)c2ccccc2)c2ccccc21)Nc1ccc(F)cc1`, for which the IC90 is more than 8.86 µM. The 50% inhibitory concentration (IC50) (PBLUC_HILL_SLOPE 1.46, PBLUC_R_SQUARED 0.555, read-out: LUCIFERASE INFECTION ASSAY - IC50) worked out at 3.31 µM.

As for `O=C1N=C(NC2CCCC2)S/C1=C\c1ccc(Cl)cc1`, the IC90 is more than 10 µM. Moreover, under setting [1], the IC50 was more than 10 µM.

Take `Cn1cc(/C=C/C(=O)Nc2nc(-c3ccc4c(c3)OCCO4)cs2)cn1`: the 90% effect concentration (IC90) was more than 10 µM. In addition, the IC50 under setting [1] amounted to 9.99 µM.

Take `Cc1cc(NC(=O)C2CC2)sc1C(=O)N1CCNC(=O)C1`: the IC90 was more than 10 µM. The IC50 under setting [1] is more than 10 µM.

Turning to `CC(C)c1ccc(-c2nnc(NC(=O)c3cn4ccccc4n3)s2)cc1`, the 90% effect concentration (IC90) is more than 10 µM. Besides, under setting [1], the IC50 worked out at 9.54 µM.

Regarding `CC(=O)c1c(C)[nH]c(C(=O)COC(=O)c2cnn(-c3ccccc3)c2)c1C`, the concentration for an effect of 90% (IC90) was more than 10 µM. Moreover, the half-inhibitory concentration (IC50) under setting [1] was more than 10 µM.

Regarding `COc1ncccc1CNC(=O)C1=COCCO1`, the 90% effect concentration (IC90) was more than 10 µM. For the same compound, the IC50 (PBLUC_HILL_SLOPE 1.77, PBLUC_R_SQUARED 0.251, read-out: LUCIFERASE INFECTION ASSAY - IC50) came out at 5.83 µM.

With `Cn1ncc2c(=O)n(Cc3sc4ccccc4c3Cl)cnc21`, the concentration for an effect of 90% (IC90) was more than 10 µM. Also, the IC50 under setting [1] was more than 10 µM.

For `CCc1c(C#N)c(SCC(=O)c2cc(C)n(-c3ccccc3)c2C)nc2c1C(=O)CC(C)(C)C2`, the IC90 is more than 10 µM. Moreover, the concentration for half-maximal inhibition (IC50) under setting [1] is more than 10 µM.

With `O=C(/C=C/c1ccccc1OC(F)F)N(Cc1ccccc1)c1nnc(SC(F)F)s1`, the IC90 was found to be 3.6 µM. Moreover, the IC50 (HEPG2TOX_HILL_SLOPE 8.23, HEPG2TOX_R_SQUARED 0.589, PBLUC_HILL_SLOPE 26.6, PBLUC_R_SQUARED 0.272, read-out: LUCIFERASE INFECTION ASSAY - IC50) amounted to 3.31 µM.

For `CC(Sc1nc(=O)c2c3c(sc2[nH]1)CCCC3)C(=O)Nc1ccc2ccccc2c1` (configuration not stated), the IC90 was more than 10 µM. Moreover, the IC50 (HEPG2TOX_HILL_SLOPE 0.165, HEPG2TOX_R_SQUARED 0.248, read-out: LUCIFERASE INFECTION ASSAY - IC50) was more than 10 µM.

As for `CCN(CC)S(=O)(=O)c1cccc(-c2nnc(SCc3nc(=O)c4cccc(C)c4[nH]3)n2CC(C)C)c1`, the concentration for an effect of 90% (IC90) is more than 10 µM. The IC50 (HEPG2TOX_HILL_SLOPE 0.901, HEPG2TOX_R_SQUARED 0.0979, read-out: LUCIFERASE INFECTION ASSAY - IC50) is more than 10 µM.

On to `Cc1ccc2nc(Cn3cc(C(F)(F)F)cc(Cl)c3=O)cn2c1`, for which the IC90 is more than 10 µM. The concentration for half-maximal inhibition (IC50) under setting [1] is more than 10 µM.

Consider `CCn1c(-c2ccccc2)c(C(=O)COC(=O)c2c(NC(C)=O)sc3c2CCCC3)c2ccccc21`, for which the IC90 was more than 10 µM. The concentration for half-maximal inhibition (IC50) under setting [1] is more than 10 µM.

Take `CCC(CO)NC(=S)Nc1cc(C(F)(F)F)cc(C(F)(F)F)c1` (configuration not stated): the concentration for an effect of 90% (IC90) was more than 9.16 µM. Also, under setting [1], the half-inhibitory concentration (IC50) is more than 9.16 µM.

Consider `N#Cc1[nH]c2ccc(Cl)cc2c1-c1ccccc1`, for which the IC90 is more than 13.1 µM. Besides, the IC50 under setting [1] was more than 13.1 µM.

In the case of `CN(C)c1nn(C(=O)Nc2cccc(C(F)(F)F)c2)cc1-c1ccccc1`, the IC90 turned out to be 8.43 µM. Moreover, where the note is “PBLUC_HILL_SLOPE 19.3, PBLUC_R_SQUARED 0.463, read-out: LUCIFERASE INFECTION ASSAY - IC50”, the concentration for half-maximal inhibition (IC50) worked out at 7.52 µM.

In the case of `Cc1ccc(F)cc1C(=O)Nc1nc2ccccn2c1C(=O)NC1CCCCC1`, the IC90 came out at 1.12 µM. Further, the concentration for half-maximal inhibition (IC50) (HEPG2TOX_HILL_SLOPE 1.92, HEPG2TOX_R_SQUARED 0.809, PBLUC_HILL_SLOPE 11.3, PBLUC_R_SQUARED 0.608, read-out: LUCIFERASE INFECTION ASSAY - IC50) came to 0.921 µM.

`Clc1cncc(Cl)c1N1CCN(c2ccc(-c3cccnc3)cn2)CC1`: the 90% effect concentration (IC90) is more than 8.54 µM. The IC50 under setting [1] amounted to 0.996 µM.

For `O=C(N/N=C(\Cc1ncc[nH]1)c1ccccc1)c1ccncc1`, the IC90 is 3.77 µM. For the setting “HEPG2TOX_HILL_SLOPE 3.38, HEPG2TOX_R_SQUARED 0.998, PBLUC_HILL_SLOPE 17.1, PBLUC_R_SQUARED 0.54, read-out: LUCIFERASE INFECTION ASSAY - IC50”, the 50% inhibitory concentration (IC50) stood at 3.31 µM.

`CCCCNC(=O)c1c(NC(=O)c2ccccc2C)nc2ccc(C)cn12`: the IC90 was more than 9.05 µM. For the same compound, under setting [1], the 50% inhibitory concentration (IC50) came to 6.48 µM.

Take `COc1ccc(C(=O)c2sc(Nc3ccccc3C)c(C(=O)Nc3ccccc3C)c2N)cc1`: the IC90 is more than 10 µM. The half-maximal inhibitory concentration (IC50) under setting [1] is 5.95 µM.

`Cc1c(C)c(C)c(S(=O)(=O)Nc2ccc3c[nH]nc3c2)c(C)c1C`: the IC90 was more than 10 µM. Besides, the IC50 (HEPG2TOX_HILL_SLOPE 1.73, HEPG2TOX_R_SQUARED 0.711, PBLUC_HILL_SLOPE 1.55, PBLUC_R_SQUARED 0.469, read-out: LUCIFERASE INFECTION ASSAY - IC50) is 4.27 µM.

`CCOc1ccc(N2CC(C(=O)N3CCCC(c4nc(C)no4)C3)CC2=O)cc1` (configuration not stated): the IC90 was more than 10 µM. Under setting [1], the IC50 was more than 10 µM.

Regarding `COc1cccc(NC(=O)N2CCc3nc(Nc4ccc(C(C)C)cc4)ncc3C2)c1`, the IC90 is more than 7.9 µM. Also, the IC50 (PBLUC_HILL_SLOPE 3.71, PBLUC_R_SQUARED 0.181, read-out: LUCIFERASE INFECTION ASSAY - IC50) stood at 6.78 µM.

On to `N#C/C(=C\C=C\c1ccccc1)c1cccc(Cl)c1`, for which the IC90 is more than 12.4 µM. The half-maximal inhibitory concentration (IC50) under setting [1] is more than 12.4 µM.

Regarding `CCOc1ccc(-c2cc(-c3ccc(S(C)(=O)=O)cc3)nc3c2cnn3C(C)C)cc1`, the concentration for an effect of 90% (IC90) was more than 10 µM. For the same compound, under “HEPG2TOX_HILL_SLOPE 15.4, HEPG2TOX_R_SQUARED 0.615, PBLUC_HILL_SLOPE 23, PBLUC_R_SQUARED 0.199, read-out: LUCIFERASE INFECTION ASSAY - IC50”, the IC50 was 9.21 µM.

As for `O=C1C=CC(=O)N1Cc1ccccc1`, the concentration for an effect of 90% (IC90) was more than 17.6 µM. Also, the IC50 (HEPG2TOX_HILL_SLOPE 16.7, HEPG2TOX_R_SQUARED 0.468, read-out: LUCIFERASE INFECTION ASSAY - IC50) was more than 17.6 µM.

In the case of `Cc1ccc(C(=O)COC(=O)Cc2n[nH]c(=O)c3ccccc23)s1`, the IC90 turned out to be 9 µM. Also, the IC50 (HEPG2TOX_HILL_SLOPE 1.97, HEPG2TOX_R_SQUARED 0.94, PBLUC_HILL_SLOPE 2.28, PBLUC_R_SQUARED 0.564, read-out: LUCIFERASE INFECTION ASSAY - IC50) was found to be 3.44 µM.

Regarding `O=C1C(=C(O)c2ccc(OC(F)F)cc2)Sc2ccccc21`, the 90% effect concentration (IC90) was more than 10 µM. In addition, for the setting “PBLUC_HILL_SLOPE 4.86, PBLUC_R_SQUARED 0.465, read-out: LUCIFERASE INFECTION ASSAY - IC50”, the IC50 turned out to be 9.12 µM.

Turning to `Nc1ccc(-c2cn3c(-c4cccc(O)c4)cnc3cn2)cn1`, the IC90 is more than 10.9 µM. Besides, the IC50 (PBLUC_HILL_SLOPE 9.28, PBLUC_R_SQUARED 0.463, read-out: LUCIFERASE INFECTION ASSAY - IC50) turned out to be 9.03 µM.

As to `CC(=O)c1cccc(-c2cnc3ccc(-c4ccoc4)nn23)c1`, the IC90 was 6.77 µM. The IC50 (HEPG2TOX_HILL_SLOPE 0.314, HEPG2TOX_R_SQUARED 0.72, PBLUC_HILL_SLOPE 2.12, PBLUC_R_SQUARED 0.552, read-out: LUCIFERASE INFECTION ASSAY - IC50) came to 2.41 µM.

Turning to `CC(C)(C)c1nc(-c2ccc(N)cc2)no1`, the 90% effect concentration (IC90) stood at 9.21 µM. Besides, the concentration for half-maximal inhibition (IC50) (HEPG2TOX_HILL_SLOPE 0.127, HEPG2TOX_R_SQUARED 0.315, PBLUC_HILL_SLOPE 1.58, PBLUC_R_SQUARED 0.494, read-out: LUCIFERASE INFECTION ASSAY - IC50) is 2.28 µM.

Turning to `CCCn1c(SCC(=O)Nc2cc(S(=O)(=O)N(CC)c3ccccc3)ccc2Cl)nc2ccccc2c1=O`, the IC90 is more than 10 µM. In addition, under “FFLUC_HILL_SLOPE 3.64, FFLUC_R_SQUARED 0.239, PBLUC_HILL_SLOPE 6.57, PBLUC_R_SQUARED 0.539, read-out: LUCIFERASE INFECTION ASSAY - IC50”, the IC50 amounted to 8.45 µM.

As for `O=C(CCc1ccc(-c2ccccc2)o1)Nc1nc(CN2CCCCC2)cs1`, the IC90 is more than 10 µM. In addition, the IC50 under setting [1] was more than 10 µM.

Regarding `COc1ccc(OC)c(CCNc2nc3cnc(-c4cccs4)cc3n2C)c1`, the 90% effect concentration (IC90) is 3.85 µM. The 50% inhibitory concentration (IC50) (HEPG2TOX_HILL_SLOPE 3.25, HEPG2TOX_R_SQUARED 0.886, PBLUC_HILL_SLOPE 11.1, PBLUC_R_SQUARED 0.592, read-out: LUCIFERASE INFECTION ASSAY - IC50) is 3.16 µM.

Consider `NC(=O)c1cc(-c2cs/c(=N\c3ccccc3F)n2C2CCCC2)ccc1O`, for which the concentration for an effect of 90% (IC90) was more than 10 µM. Further, for the setting “PBLUC_HILL_SLOPE 1.38, PBLUC_R_SQUARED 0.237, read-out: LUCIFERASE INFECTION ASSAY - IC50”, the IC50 was 4.32 µM.

Consider `Cc1c(S(=O)(=O)c2ccc(Cl)cc2)csc1C(=O)N1CC(C)OC(C)C1` (configuration not stated), for which the IC90 is more than 7.97 µM. Also, under setting [1], the IC50 is more than 7.97 µM.
